A short description of series [1]: Stability study: total related substances of crystalline form lots on storage.
Series [2] in a line: Stability study: solvents (water) content of crystalline form lots on storage.
[3] abbreviates: accelerated conditions 30° C., 0 months.
Where [4] appears, read: accelerated conditions 30° C., 1 month.
Setting [5] is: accelerated conditions 30° C., 2 months.
The mark [6] stands for this setting: accelerated conditions 30° C., 3 months.
Setting [7] is: accelerated conditions 30° C., 6 months.

Turning to `Nc1nc2[nH]cc(CCc3ccc(C(=O)N[C@@H](CCC(=O)O)C(=O)O)cc3)c2c(=O)[nH]1` [Lot A, pemetrexed disodium], the “change in the percent total related substances over time” value in series [1] (2.5 hydrate lots stored at 5° C.) was “did not change significantly over time”; in series [1] (accelerated conditions 30° C.), “did change significantly over time”. For the same molecule, the “Total Related Substances Results” value in series [1] (setting [3]) is reported as 0.24% of Total; in series [1] (setting [4]), 0.35% of Total; in series [1] (setting [5]), 0.41% of Total; in series [1] (setting [6]), 0.6% of Total; in series [1] (setting [7]), 1.1% of Total; in series [1] (stored at 5° C., 0 months), 0.24% of Total. Also, the “Total Related Substances Results” value is reported as 0.26% of Total in series [1] (stored at 5° C., 3 months); 0.27% of Total in series [1] (stored at 5° C., 6 months); 0.28% of Total in series [1] (stored at 5° C., 12 months); 0.4% of Total in series [1] (stored at 5° C., 18 months); 0.4% of Total in series [1] (stored at 5° C., 24 months). In addition, the “Solvents Results” value was 10.2% of Total in series [2] (setting [3]); 10.9% of Total in series [2] (setting [4]); 10.6% of Total in series [2] (setting [5]); 10.7% of Total in series [2] (setting [6]); 9.3% of Total in series [2] (setting [7]); 10.2% of Total in series [2] (stored at 5° C., 0 months, lots A-C water and ethanol, lot D water only). The “Solvents Results” value was 22.0% of Total in series [2] (stored at 5° C., 3 months); 21.1% of Total in series [2] (stored at 5° C., 6 months); 21.5% of Total in series [2] (stored at 5° C., 12 months); 22.3% of Total in series [2] (stored at 5° C., 18 months); 21.1% of Total in series [2] (stored at 5° C., 24 months).
